According to patent US11426448B2, “Methods for treatment of erectile dysfunction with sonic hedgehog compounds” (NORTHWESTERN UNIVERSITY, priority 2018, dated 2022):

Test system: MPG/CN neurons
Test: MPG/CN organ culture with Affi-Gel beads, quantification of neurites
Format: cell-based, Sprague Dawley rats
Settings: uninjured MPG/CN, three days, SHH inhibitors on Affi-Gel beads, vs DMSO or PBS

## CC1=C2C[C@H]3[C@@H](CC=C4C[C@@H](O)CC[C@@]43C)[C@@H]2CC[C@]12O[C@@H]1C[C@H](C)CN[C@H]1[C@H]2C [cyclopamine]
  neurite formation reduced: 5.6 fold
  neurite formation reduced / inhibited: 82%
